{
  "source": "ChEMBL document CHEMBL3885881",
  "about": "“DrugMatrix”",
  "species": "Rattus norvegicus",
  "assay": "DrugMatrix - Regimen: Daily Repeat",
  "type": "toxicity, organism-based, Sprague-Dawley",
  "design": "regimen Daily Repeat, gender Male, age 6-8 weeks",
  "conditions": "in vivo, po, 1100 mg/kg, route oral GAVAGE, dose level High, vehicle .5 % CMC; for ABSOLUTE BASOPHIL / ABSOLUTE EOSINOPHIL / ABSOLUTE LYMPHOCYTE / ABSOLUTE MONOCYTE / ABSOLUTE SEGMENTED NEUTROPHIL / BASOPHIL / EOSINOPHIL / ERYTHROCYTE COUNT / HEMATOCRIT / HEMOGLOBIN / LEUKOCYTE COUNT / LYMPHOCYTE / MEAN CORPUSCULAR HEMOGLOBIN / MEAN CORPUSCULAR HEMOGLOBIN CONCENTRATION / MEAN CORPUSCULAR VOLUME / MONOCYTE / NEUTROPHIL / NUCLEATED RED BLOOD CELLS / PLATELET COUNT: tissue Blood; for ALANINE AMINOTRANSFERASE / ALBUMIN / ALKALINE PHOSPHATASE / ASPARTATE AMINOTRANSFERASE / BLOOD UREA NITROGEN / CARBON DIOXIDE / CHLORIDE / CHOLESTEROL / CREATINE PHOSPHOKINASE / CREATININE / GLUCOSE / LACTATE DEHYDROGENASE / LIPASE / PHOSPHORUS / POTASSIUM / SODIUM / TOTAL BILIRUBIN / TOTAL PROTEIN / URIC ACID: tissue Plasma",
  "data": [
    {"smiles": "COc1ccc(/C=C/C(=O)Nc2ccccc2C(=O)O)cc1OC", "values": [
      {"measurement": "ABSOLUTE BASOPHIL", "setting": "72 h, time 3 day", "value": 0, "unit": "CELLS/uL"},
      {"measurement": "ABSOLUTE EOSINOPHIL", "setting": "72 h, time 3 day", "value": 138, "unit": "CELLS/uL"},
      {"measurement": "ABSOLUTE LYMPHOCYTE", "setting": "72 h, time 3 day", "value": 17593, "unit": "CELLS/uL"},
      {"measurement": "ABSOLUTE MONOCYTE", "setting": "72 h, time 3 day", "value": 218.33, "unit": "CELLS/uL"},
      {"measurement": "ABSOLUTE SEGMENTED NEUTROPHIL", "setting": "72 h, time 3 day", "value": 4950.67, "unit": "CELLS/uL"},
      {"measurement": "BASOPHIL", "setting": "72 h, time 3 day", "value": 0, "unit": "%"},
      {"measurement": "EOSINOPHIL", "setting": "72 h, time 3 day", "value": 0.67, "unit": "%"},
      {"measurement": "ERYTHROCYTE COUNT", "setting": "72 h, time 3 day", "value": 5.25, "unit": "x10E6/uL"},
      {"measurement": "HEMATOCRIT", "setting": "72 h, time 3 day", "value": 33.23, "unit": "%"},
      {"measurement": "HEMOGLOBIN", "setting": "72 h, time 3 day", "value": 12.93, "unit": "G/DL"},
      {"measurement": "LEUKOCYTE COUNT", "setting": "72 h, time 3 day", "value": 22.9, "unit": "x10E3/uL"},
      {"measurement": "LYMPHOCYTE", "setting": "72 h, time 3 day", "value": 77, "unit": "%"},
      {"measurement": "MEAN CORPUSCULAR HEMOGLOBIN", "setting": "72 h, time 3 day", "value": 24.77, "unit": "pg"},
      {"measurement": "MEAN CORPUSCULAR HEMOGLOBIN CONCENTRATION", "setting": "72 h, time 3 day", "value": 38.97, "unit": "G/DL"},
      {"measurement": "MEAN CORPUSCULAR VOLUME", "setting": "72 h, time 3 day", "value": 63.5, "unit": "fL"},
      {"measurement": "MONOCYTE", "setting": "72 h, time 3 day", "value": 1, "unit": "%"},
      {"measurement": "NEUTROPHIL", "setting": "72 h, time 3 day", "value": 21.33, "unit": "%"},
      {"measurement": "NUCLEATED RED BLOOD CELLS", "setting": "72 h, time 3 day", "value": "0 /100WBC"},
      {"measurement": "PLATELET COUNT", "setting": "72 h, time 3 day", "value": 1488, "unit": "x10E3/uL"},
      {"measurement": "ALANINE AMINOTRANSFERASE", "setting": "72 h, time 3 day", "value": 95, "unit": "u/L"},
      {"measurement": "ALBUMIN", "setting": "72 h, time 3 day", "value": 4.4, "unit": "G/DL"},
      {"measurement": "ALKALINE PHOSPHATASE", "setting": "72 h, time 3 day", "value": 368, "unit": "u/L"},
      {"measurement": "ASPARTATE AMINOTRANSFERASE", "setting": "72 h, time 3 day", "value": 112.67, "unit": "u/L"},
      {"measurement": "BLOOD UREA NITROGEN", "setting": "72 h, time 3 day", "value": 18.33, "unit": "mg/dL"},
      {"measurement": "CARBON DIOXIDE", "setting": "72 h, time 3 day", "value": 19.33, "unit": "mmol/L"},
      {"measurement": "CHLORIDE", "setting": "72 h, time 3 day", "value": 104, "unit": "MEQ/L"},
      {"measurement": "CHOLESTEROL", "setting": "72 h, time 3 day", "value": 47.33, "unit": "mg/dL"},
      {"measurement": "CREATINE PHOSPHOKINASE", "setting": "72 h, time 3 day", "value": 547, "unit": "u/L"},
      {"measurement": "CREATININE", "setting": "72 h, time 3 day", "value": 0.11, "unit": "mg/dL"},
      {"measurement": "GLUCOSE", "setting": "72 h, time 3 day", "value": 149.67, "unit": "mg/dL"},
      {"measurement": "LACTATE DEHYDROGENASE", "setting": "72 h, time 3 day", "value": 794, "unit": "u/L"},
      {"measurement": "LIPASE", "setting": "72 h, time 3 day", "value": 10, "unit": "u/L"},
      {"measurement": "PHOSPHORUS", "setting": "72 h, time 3 day", "value": 12, "unit": "mg/dL"},
      {"measurement": "POTASSIUM", "setting": "72 h, time 3 day", "value": 5.56, "unit": "MEQ/L"},
      {"measurement": "SODIUM", "setting": "72 h, time 3 day", "value": 142.2, "unit": "MEQ/L"},
      {"measurement": "TOTAL BILIRUBIN", "setting": "72 h, time 3 day", "value": 0.27, "unit": "mg/dL"},
      {"measurement": "TOTAL PROTEIN", "setting": "72 h, time 3 day", "value": 5.77, "unit": "G/DL"},
      {"measurement": "URIC ACID", "setting": "72 h, time 3 day", "value": 1.67, "unit": "mg/dL"},
      {"measurement": "ABSOLUTE BASOPHIL", "setting": "120 h, time 5 day", "value": 0, "unit": "CELLS/uL"},
      {"measurement": "ABSOLUTE EOSINOPHIL", "setting": "120 h, time 5 day", "value": 0, "unit": "CELLS/uL"},
      {"measurement": "ABSOLUTE LYMPHOCYTE", "setting": "120 h, time 5 day", "value": 8740, "unit": "CELLS/uL"},
      {"measurement": "ABSOLUTE MONOCYTE", "setting": "120 h, time 5 day", "value": 0, "unit": "CELLS/uL"},
      {"measurement": "ABSOLUTE SEGMENTED NEUTROPHIL", "setting": "120 h, time 5 day", "value": 2760, "unit": "CELLS/uL"},
      {"measurement": "BASOPHIL", "setting": "120 h, time 5 day", "value": 0, "unit": "%"},
      {"measurement": "EOSINOPHIL", "setting": "120 h, time 5 day", "value": 0, "unit": "%"},
      {"measurement": "ERYTHROCYTE COUNT", "setting": "120 h, time 5 day", "value": 5.33, "unit": "x10E6/uL"},
      {"measurement": "HEMATOCRIT", "setting": "120 h, time 5 day", "value": 31.3, "unit": "%"},
      {"measurement": "HEMOGLOBIN", "setting": "120 h, time 5 day", "value": 12.1, "unit": "G/DL"},
      {"measurement": "LEUKOCYTE COUNT", "setting": "120 h, time 5 day", "value": 11.5, "unit": "x10E3/uL"},
      {"measurement": "LYMPHOCYTE", "setting": "120 h, time 5 day", "value": 76, "unit": "%"},
      {"measurement": "MEAN CORPUSCULAR HEMOGLOBIN", "setting": "120 h, time 5 day", "value": 22.7, "unit": "pg"},
      {"measurement": "MEAN CORPUSCULAR HEMOGLOBIN CONCENTRATION", "setting": "120 h, time 5 day", "value": 38.7, "unit": "G/DL"},
      {"measurement": "MEAN CORPUSCULAR VOLUME", "setting": "120 h, time 5 day", "value": 58.8, "unit": "fL"},
      {"measurement": "MONOCYTE", "setting": "120 h, time 5 day", "value": 0, "unit": "%"},
      {"measurement": "NEUTROPHIL", "setting": "120 h, time 5 day", "value": 24, "unit": "%"},
      {"measurement": "NUCLEATED RED BLOOD CELLS", "setting": "120 h, time 5 day", "value": "2 /100WBC"},
      {"measurement": "PLATELET COUNT", "setting": "120 h, time 5 day", "value": 1853, "unit": "x10E3/uL"},
      {"measurement": "ALANINE AMINOTRANSFERASE", "setting": "120 h, time 5 day", "value": 113, "unit": "u/L"},
      {"measurement": "ALBUMIN", "setting": "120 h, time 5 day", "value": 4.4, "unit": "G/DL"},
      {"measurement": "ALKALINE PHOSPHATASE", "setting": "120 h, time 5 day", "value": 238, "unit": "u/L"},
      {"measurement": "ASPARTATE AMINOTRANSFERASE", "setting": "120 h, time 5 day", "value": 86, "unit": "u/L"},
      {"measurement": "BLOOD UREA NITROGEN", "setting": "120 h, time 5 day", "value": 17, "unit": "mg/dL"},
      {"measurement": "CARBON DIOXIDE", "setting": "120 h, time 5 day", "value": 22, "unit": "mmol/L"},
      {"measurement": "CHLORIDE", "setting": "120 h, time 5 day", "value": 102, "unit": "MEQ/L"},
      {"measurement": "CHOLESTEROL", "setting": "120 h, time 5 day", "value": 58, "unit": "mg/dL"},
      {"measurement": "CREATINE PHOSPHOKINASE", "setting": "120 h, time 5 day", "value": 287, "unit": "u/L"},
      {"measurement": "CREATININE", "setting": "120 h, time 5 day", "value": 0.1, "unit": "mg/dL"},
      {"measurement": "GLUCOSE", "setting": "120 h, time 5 day", "value": 153, "unit": "mg/dL"},
      {"measurement": "LACTATE DEHYDROGENASE", "setting": "120 h, time 5 day", "value": 188, "unit": "u/L"},
      {"measurement": "LIPASE", "setting": "120 h, time 5 day", "value": 9, "unit": "u/L"},
      {"measurement": "PHOSPHORUS", "setting": "120 h, time 5 day", "value": 14.8, "unit": "mg/dL"},
      {"measurement": "POTASSIUM", "setting": "120 h, time 5 day", "value": 5.92, "unit": "MEQ/L"},
      {"measurement": "SODIUM", "setting": "120 h, time 5 day", "value": 141.9, "unit": "MEQ/L"},
      {"measurement": "TOTAL BILIRUBIN", "setting": "120 h, time 5 day", "value": 0.2, "unit": "mg/dL"},
      {"measurement": "TOTAL PROTEIN", "setting": "120 h, time 5 day", "value": 5.6, "unit": "G/DL"},
      {"measurement": "URIC ACID", "setting": "120 h, time 5 day", "value": 2.1, "unit": "mg/dL"}
    ]}
  ]
}
